How the values were obtained:
MES-SA cells = experiment: Cell growth test (MTT), MES-SA; format: cell-based; conditions: Homo sapiens, MTT test after 48 h, read-out: IC50 (concentration necessary to inhibit 50% of cell growth)
Method: (§1) The cell growth tests are carried out in transparent 96-well microplates (Greiner) after having seeded 100 μl/well of a cell solution having 2·10^5 cells/ml to 5·10^5 cells/ml (depending on the cell lines). After incubating for 24 h at 37° C. with 5% CO2, the culture medium is removed and replaced with solutions of the molecule to be tested at various concentrations. The cells are incubated with these molecules for an additional 48 h at 37° C. with 5% CO2. After elimination of the medium, the cells are washed with blank RPMI (Gibco, Invitrogen) then incubated with 3-(4,5-dimethylthiazol-2-yl)-2,5-diphenyltetrazolium bromide or MTT (0.5 mg/ml final concentration) for 4 h at 37° C. with 5% CO2. MTT (Sigma Aldrich) makes it possible to estimate the viability of the cells by measuring the activity of a mitochondrial enzyme. Indeed, in living cells, mitochondrial dehydrogenases are capable of cleaving the tetrazolium ring, thus leading to the formation of formazan crystals that are insoluble in an aqueous medium. These crystals are dissolved with the addition of a solubilizing solution (isopropanol, 10% Triton X100, 0.1 N HCl). After stirring, the absorbance is measured at 570 nm using the FLUOstar OPTIMA microplate reader. […]
(§2) The viability of the cells was evaluated using an MTT test after 48 h of exposure with various concentrations of molecules (from 100 μM to 0.001 μM). […]

HeLa cells = experiment: Cell growth test (MTT), HeLa; format: cell-based; conditions: Homo sapiens, MTT test after 48 h, read-out: IC50 (concentration necessary to inhibit 50% of cell growth)
Method: as §1, §2

[1] = test system: microtubules of HeLa cells; experiment: Resistance of microtubules to nocodazole-induced depolymerization; format: cell-based, Human; conditions: 2 h with compound then 30 minutes nocodazole
Method: 6. a step of analysis of the effect of the compound to be tested on the dynamics of the microtubule network. For this, HeLa cells are incubated for 2 h with the compound to be tested, then optionally treated with 10 μM nocodazole for 30 minutes.
FIG. 4 represents the effect of nocodazole on the microtubules of the HeLa cells treated with the Compound 1 of the invention. The HeLa cells are incubated with paclitaxel or without, with the Compound 1 of the invention for 2 h, then exposed for 30 minutes to nocodazole. The amount of tubulin in the cells treated with the Compound 1 of the invention is measured with a microplate reader, then reported as a percentage of the amount of tubulin measured in the wells containing the cells treated with paclitaxel;
(§3) In the living cell, microtubules are dynamic structures, which oscillate between assembling and disassembling phases. Various types of tests may be carried out in order to assess the stabilizing effect of the molecules on the microtubule network. Thus, the binding of paclitaxel to the microtubules, or the binding of stabilizing proteins such as STOP proteins (Bosc et al., 2003) may protect the microtubule network from a depolymerization induced by an incubation of the cells at 4° C. […]

recombinant human LIMK1 = target: T1, recombinant human LIMK1 (Homo sapiens, UniProt P53667); experiment: LIMK1 inhibition reversibility assay (size-exclusion chromatography); format: biochemical; conditions: 2 μM compound, input vs flow-through after size-exclusion chromatography
T1 construct: 6His (N); purchased Millipore 14-656
T1 sequence (P53667 whole entry): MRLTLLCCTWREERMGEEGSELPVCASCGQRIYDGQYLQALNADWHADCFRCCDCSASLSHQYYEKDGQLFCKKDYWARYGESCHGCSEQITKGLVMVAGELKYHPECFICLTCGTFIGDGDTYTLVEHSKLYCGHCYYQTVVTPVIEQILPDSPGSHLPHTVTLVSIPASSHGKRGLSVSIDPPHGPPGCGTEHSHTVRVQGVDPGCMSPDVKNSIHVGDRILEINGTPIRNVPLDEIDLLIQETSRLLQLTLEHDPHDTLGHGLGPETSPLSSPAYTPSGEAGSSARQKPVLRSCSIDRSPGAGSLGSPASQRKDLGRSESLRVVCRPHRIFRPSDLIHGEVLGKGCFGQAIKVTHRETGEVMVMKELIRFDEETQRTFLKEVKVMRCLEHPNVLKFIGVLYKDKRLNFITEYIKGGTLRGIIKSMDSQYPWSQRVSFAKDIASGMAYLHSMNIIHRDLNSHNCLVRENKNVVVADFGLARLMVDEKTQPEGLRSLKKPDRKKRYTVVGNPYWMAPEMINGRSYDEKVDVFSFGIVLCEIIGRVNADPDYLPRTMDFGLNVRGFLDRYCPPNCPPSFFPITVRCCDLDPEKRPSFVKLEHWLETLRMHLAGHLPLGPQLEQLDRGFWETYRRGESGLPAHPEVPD
Method: N-terminal 6H s-tagged recombinant human LIMK1 (Millipore #14-656, 62.5 ng) was incubated with […] Compound 1 (or equivalent amount of DMSO) for 10 minutes at 4° C. in a final volume of 100 μL. Size-exclusion chromatography of this mixture was then performed using 1 ml Biospin P-6 column (Biorad, equilibrated in 20 mM MOPS pH=7.0, 1 mM EDTA, 0.01% NP-40, 5% glycerol, 0.1% β-mercaptoethanol, 1 mg·ml^−1 Bovine Serum Albumin). LIMK1 kinase activity in input and flow-through were then assayed by radiometric LIMK1 kinase assay.
LIMK1 inhibition reversibility was assayed in vitro, in the conditions of Example 2, in the presence of 2 μM Compound 1 (H06), prior (‘input’) or after size-exclusion chromatography (‘flow-through’). Error bars represent standard error mean.

[2] = test system: microtubules of HeLa cells; experiment: Stability of microtubules at low temperature (4° C.); format: cell-based, Human; conditions: 2 h with compound then 30 minutes at 4° C.
Method: FIG. 3 represents the effect of the Compound 1 of the invention on the stability of microtubules at low temperature. The HeLa cells are incubated with paclitaxel or without, with the Compound 1 of the invention, for 2 h, then exposed for 30 minutes at 4° C. The amount of tubulin in the cells treated with the Compound 1 of the invention is measured with a microplate reader, then reported as a percentage of the amount of tubulin measured in the wells containing the cells treated with paclitaxel (100%);
as §3, with “C. Furthermore, molecules capable of slowing down the dynamics of the microtubules may be identified by analyzing the resistance of cell microtubules to a depolymerization induced by nocodazole. In the absence of a stabilizing compound, the microtubules depolymerize in the presence of nocodazole (FIG. 2).” for “C.”

MES-SA DX5 cells = experiment: Cell growth test (MTT), MES-SA DX5; format: cell-based; conditions: Homo sapiens; MES-SA DX5 (multi-drug resistant, P-glycoprotein), MTT test after 48 h; read-out: IC50 (concentration necessary to inhibit 50% of cell growth)
Method: as §1, §2

In the case of `Cc1c2cc[nH]c(=O)c2c(C)c2c1[nH]c1ccc(OC(=O)c3ccccc3)cc12` [Compound 1, 9-benzoyloxy-5,11-dimethyl-2H,6H-pyrido[4,3-b]carbazol-1-one], the IC50 (MES-SA cells) is reported as 26 µM, the IC50 (HeLa cells) is reported as 1.21 µM and the “Protection of microtubules from nocodazole-induced depolymerization” value [1] is reported as “prevents, in a dose-dependent manner”. For the same compound, the “Reversibility of LIMK1 inhibition in vitro” value (recombinant human LIMK1) was “reversible”, the “Protection of microtubules from cold-induced depolymerization” value [2] was “not able to protect the microtubules” and the IC50 (MES-SA DX5 cells) was 27.4 µM.
